{"source": "patent US11214594B2", "about": "“Antimicrobial peptide having synergistic antibacterial effect with antibiotics on multidrug resistant bacteria, and use thereof” (priority 2016, dated 2022)", "key": {"E. coli": {"system": "E. coli", "assay": "MIC of antibiotic during combined treatment with antimicrobial peptide", "assay_type": "cell-based, Escherichia coli", "settings": "E. coli", "outline": "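Read-out is the MIC of each combined solution, obtained from MH-medium dilutions of antibiotic added well by well, with a reversed-condition run as well.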"}, "A. baumannii [1]": {"system": "A. baumannii", "assay": "MIC of antimicrobial peptide during combined treatment with antibiotic", "assay_type": "cell-based, Acinetobacter baumannii", "outline": "(§1)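 Strains in MH medium at 2×10^6 CFU/ml were mixed with peptide diluted stepwise (2:1) from its MIC, then antibiotic dilutions in MH medium were added to give the antibiotic MIC. The reversed set-up, peptide titrated against fixed antibiotic, gave the peptide MIC.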"}, "MDRAB 12035 [2]": {"system": "MDRAB 12035", "assay": "MIC of antimicrobial peptide during combined treatment with antibiotic", "assay_type": "cell-based, Acinetobacter baumannii", "outline": "as §1"}, "A. baumannii [3]": {"system": "A. baumannii", "assay": "microbe, parasite or virus in culture", "assay_type": "cell-based, Acinetobacter baumannii", "outline": "(§2)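 MIC read-out = lowest peptide level with no bacterial proliferation. Strains diluted in MH medium to 2×10^6 CFU; peptide twofold serial dilutions in MH added 1:1 in microtiter wells.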"}, "MDRAB 12035 [4]": {"system": "MDRAB 12035", "assay": "microbe, parasite or virus in culture", "assay_type": "cell-based, Acinetobacter baumannii", "outline": "as §2"}, "MDRST 8007": {"system": "MDRST 8007", "assay": "Minimal inhibitory concentration (MIC), single agent", "assay_type": "cell-based, Salmonella typhimurium", "settings": "agent alone", "outline": "as §2"}, "MDRAB 12035 [5]": {"system": "MDRAB 12035", "assay": "MIC of antibiotic during combined treatment with antimicrobial peptide", "assay_type": "cell-based, Acinetobacter baumannii", "outline": "as §1"}, "[6]": {"settings": "erythromycin 4 μg/ml (Conc./MIC 1/8)"}, "[7]": {"settings": "erythromycin 8 μg/ml (Conc./MIC 1/4)"}, "[8]": {"settings": "erythromycin 16 μg/ml (Conc./MIC 1/2)"}, "[9]": {"settings": "erythromycin 32 μg/ml (Conc./MIC 1)"}, "[10]": {"settings": "vancomycin 512 μg/ml (Conc./MIC 1/2)"}, "[11]": {"settings": "vancomycin 1024 μg/ml (Conc./MIC 1)"}, "[12]": {"settings": "peptide treatment concentration 1 μg/ml"}, "[13]": {"settings": "peptide treatment concentration 2 μg/ml"}, "[14]": {"settings": "peptide treatment concentration 4 μg/ml"}, "[15]": {"settings": "peptide treatment concentration 6 μg/ml"}, "[16]": {"settings": "peptide treatment concentration 8 μg/ml"}, "[17]": {"settings": "peptide treatment concentration 16 μg/ml"}, "[18]": {"settings": "peptide treatment concentration 32 μg/ml"}, "[19]": {"settings": "peptide treatment concentration 64 μg/ml"}}, "note": "Where a SMILES comes first, the peptide text is derived from it.", "data": [{"compound": "CC[C@H](C)[C@H](NC(=O)[C@H](CCCCN)NC(=O)[C@H](Cc1c[nH]c2ccccc12)NC(=O)[C@@H](N)CCCNC(=N)N)C(=O)N[C@@H](Cc1ccccc1)C(=O)N[C@@H](CCCCN)C(=O)N[C@@H](CCCCN)C(=O)N[C@H](C(=O)N1CCC[C@H]1C(=O)N[C@@H](CCCCN)C(=O)N[C@@H](Cc1ccccc1)C(=O)N[C@@H](CC(C)C)C(=O)N[C@@H](Cc1c[nH]cn1)C(=O)N[C@@H](CO)C(=O)N[C@@H](CC(C)C)C(=O)N[C@@H](CCCCN)C(=O)N[C@@H](CCCCN)C(=O)N[C@@H](Cc1ccccc1)C(N)=O)[C@@H](C)CC", "note": "[PapMA-6, RWK IFK KIP KFL HSL KKF-NH2] (H-RWKIFKKIPKFLHSLKKF-NH2; N-terminus assumed)", "values": [{"measurement": "Antibiotic MIC, Vancomycin", "setting": "E. coli; vancomycin combined with peptide at 16 μg/ml", "result": 2, "unit": "µg/mL"}, {"measurement": "Antibiotic MIC, Vancomycin", "setting": "E. coli; vancomycin combined with peptide at 32 μg/ml", "result": 1, "unit": "µg/mL"}, {"measurement": "Antibiotic MIC, Vancomycin", "setting": "E. coli; vancomycin combined with peptide at 64 μg/ml", "result": 0, "unit": "µg/mL"}, {"measurement": "Peptide MIC during treatment with antibiotic", "setting": "A. baumannii [1]; [6]", "result": 4, "unit": "µg/mL"}, {"measurement": "Peptide MIC during treatment with antibiotic", "setting": "A. baumannii [1]; [7]", "result": 2, "unit": "µg/mL"}, {"measurement": "Peptide MIC during treatment with antibiotic", "setting": "A. baumannii [1]; [8]", "result": 1, "unit": "µg/mL"}, {"measurement": "Peptide MIC during treatment with antibiotic", "setting": "A. baumannii [1]; [9]", "result": 0, "unit": "µg/mL"}, {"measurement": "Peptide MIC during treatment with antibiotic", "setting": "A. baumannii [1]; linezolid 32 μg/ml (Conc./MIC 1/8)", "result": 4, "unit": "µg/mL"}, {"measurement": "Peptide MIC during treatment with antibiotic", "setting": "A. baumannii [1]; linezolid 64 μg/ml (Conc./MIC 1/4)", "result": 2, "unit": "µg/mL"}, {"measurement": "Peptide MIC during treatment with antibiotic", "setting": "A. baumannii [1]; linezolid […] (Conc./MIC 1)", "result": 0, "unit": "µg/mL"}, {"measurement": "Peptide MIC during treatment with antibiotic", "setting": "A. baumannii [1]; linezolid […] (Conc./MIC 1/2)", "result": 1, "unit": "µg/mL"}, {"measurement": "Peptide MIC during treatment with antibiotic", "setting": "A. baumannii [1]; [10]", "result": 0.25, "unit": "µg/mL"}, {"measurement": "Peptide MIC during treatment with antibiotic", "setting": "A. baumannii [1]; [11]", "result": 0, "unit": "µg/mL"}, {"measurement": "Peptide MIC during treatment with antibiotic", "setting": "A. baumannii [1]; vancomycin […] (Conc./MIC 1/4)", "result": 0.5, "unit": "µg/mL"}, {"measurement": "Peptide MIC during treatment with antibiotic", "setting": "A. baumannii [1]; vancomycin […] (Conc./MIC 1/8)", "result": 2, "unit": "µg/mL"}, {"measurement": "Peptide MIC during treatment with erythromycin", "setting": "MDRAB 12035 [2]; [6]", "result": 4, "unit": "µg/mL"}, {"measurement": "Peptide MIC during treatment with erythromycin", "setting": "MDRAB 12035 [2]; [7]", "result": 2, "unit": "µg/mL"}, {"measurement": "Peptide MIC during treatment with erythromycin", "setting": "MDRAB 12035 [2]; [8]", "result": 1, "unit": "µg/mL"}, {"measurement": "Peptide MIC during treatment with erythromycin", "setting": "MDRAB 12035 [2]; [9]", "result": 0, "unit": "µg/mL"}, {"measurement": "Peptide MIC during treatment with linezolid", "setting": "MDRAB 12035 [2]; linezolid 64 μg/ml (Conc./MIC 1/8)", "result": 2, "unit": "µg/mL"}, {"measurement": "Peptide MIC during treatment with linezolid", "setting": "MDRAB 12035 [2]; linezolid 512 μg/ml (Conc./MIC 1)", "result": 0, "unit": "µg/mL"}, {"measurement": "Peptide MIC during treatment with linezolid", "setting": "MDRAB 12035 [2]; linezolid […] (Conc./MIC 1/2)", "result": 1, "unit": "µg/mL"}, {"measurement": "Peptide MIC during treatment with linezolid", "setting": "MDRAB 12035 [2]; linezolid […] (Conc./MIC 1/4)", "result": 1, "unit": "µg/mL"}, {"measurement": "Peptide MIC during treatment with vancomycin", "setting": "MDRAB 12035 [2]; [10]", "result": 1, "unit": "µg/mL"}, {"measurement": "Peptide MIC during treatment with vancomycin", "setting": "MDRAB 12035 [2]; [11]", "result": 0.25, "unit": "µg/mL"}, {"measurement": "Peptide MIC during treatment with vancomycin", "setting": "MDRAB 12035 [2]; vancomycin […] (Conc./MIC 1/4)", "result": 2, "unit": "µg/mL"}, {"measurement": "Peptide MIC during treatment with vancomycin", "setting": "MDRAB 12035 [2]; vancomycin […] (Conc./MIC 1/8)", "result": 2, "unit": "µg/mL"}, {"measurement": "Minimal inhibitory concentration MIC", "setting": "A. baumannii [3]", "result": 32, "unit": "µg/mL"}, {"measurement": "Peptide MIC, peptide alone", "setting": "A. baumannii [3]", "result": 32, "unit": "µg/mL"}, {"measurement": "Minimal inhibitory concentration MIC", "setting": "MDRAB 12035 [4]", "result": 64, "unit": "µg/mL"}, {"measurement": "Peptide MIC, peptide alone", "setting": "MDRAB 12035 [4]", "result": 64, "unit": "µg/mL"}, {"measurement": "Minimal inhibitory concentration MIC", "setting": "MDRST 8007", "result": 32, "unit": "µg/mL"}, {"measurement": "Erythromycin MIC during combined treatment with peptide", "setting": "MDRAB 12035 [5]; [12]", "result": 16, "unit": "µg/mL"}, {"measurement": "Linezolid MIC during combined treatment with peptide", "setting": "MDRAB 12035 [5]; [12]", "result": 128, "unit": "µg/mL"}, {"measurement": "Vancomycin MIC during combined treatment with peptide", "setting": "MDRAB 12035 [5]; [12]", "result": ">128", "unit": "µg/mL"}, {"measurement": "Erythromycin MIC during combined treatment with peptide", "setting": "MDRAB 12035 [5]; [13]", "result": 8, "unit": "µg/mL"}, {"measurement": "Linezolid MIC during combined treatment with peptide", "setting": "MDRAB 12035 [5]; [13]", "result": 32, "unit": "µg/mL"}, {"measurement": "Vancomycin MIC during combined treatment with peptide", "setting": "MDRAB 12035 [5]; [13]", "result": 128, "unit": "µg/mL"}, {"measurement": "Erythromycin MIC during combined treatment with peptide", "setting": "MDRAB 12035 [5]; [14]", "result": 4, "unit": "µg/mL"}, {"measurement": "Linezolid MIC during combined treatment with peptide", "setting": "MDRAB 12035 [5]; [14]", "result": 16, "unit": "µg/mL"}, {"measurement": "Vancomycin MIC during combined treatment with peptide", "setting": "MDRAB 12035 [5]; [14]", "result": 64, "unit": "µg/mL"}, {"measurement": "Erythromycin MIC during combined treatment with peptide", "setting": "MDRAB 12035 [5]; [15]", "result": 0.5, "unit": "µg/mL"}, {"measurement": "Linezolid MIC during combined treatment with peptide", "setting": "MDRAB 12035 [5]; [15]", "result": 8, "unit": "µg/mL"}, {"measurement": "Vancomycin MIC during combined treatment with peptide", "setting": "MDRAB 12035 [5]; [15]", "result": 8, "unit": "µg/mL"}, {"measurement": "Erythromycin MIC during combined treatment with peptide", "setting": "MDRAB 12035 [5]; [16]", "result": 0.25, "unit": "µg/mL"}, {"measurement": "Linezolid MIC during combined treatment with peptide", "setting": "MDRAB 12035 [5]; [16]", "result": 4, "unit": "µg/mL"}, {"measurement": "Vancomycin MIC during combined treatment with peptide", "setting": "MDRAB 12035 [5]; [16]", "result": 8, "unit": "µg/mL"}, {"measurement": "Erythromycin MIC during combined treatment with peptide", "setting": "MDRAB 12035 [5]; [17]", "result": 0.125, "unit": "µg/mL"}, {"measurement": "Linezolid MIC during combined treatment with peptide", "setting": "MDRAB 12035 [5]; [17]", "result": 2, "unit": "µg/mL"}, {"measurement": "Vancomycin MIC during combined treatment with peptide", "setting": "MDRAB 12035 [5]; [17]", "result": 4, "unit": "µg/mL"}, {"measurement": "Erythromycin MIC during combined treatment with peptide", "setting": "MDRAB 12035 [5]; [18]", "result": 0.0625, "unit": "µg/mL"}, {"measurement": "Linezolid MIC during combined treatment with peptide", "setting": "MDRAB 12035 [5]; [18]", "result": 1, "unit": "µg/mL"}, {"measurement": "Vancomycin MIC during combined treatment with peptide", "setting": "MDRAB 12035 [5]; [18]", "result": 2, "unit": "µg/mL"}, {"measurement": "Erythromycin MIC during combined treatment with peptide", "setting": "MDRAB 12035 [5]; [19]", "result": 0, "unit": "µg/mL"}, {"measurement": "Linezolid MIC during combined treatment with peptide", "setting": "MDRAB 12035 [5]; [19]", "result": 0, "unit": "µg/mL"}, {"measurement": "Vancomycin MIC during combined treatment with peptide", "setting": "MDRAB 12035 [5]; [19]", "result": 0, "unit": "µg/mL"}]}]}
